# Reference: patent US20080306044A1, “SPIROBENZOAZEPANES AS VASOPRESSIN ANTAGONISTS” (priority 2007, published 2008)
# pIC50: −log10 of the molar value. Read-outs that look alike come from different tables or passages of the source.
# What was measured:
# [1] = target: human V2 receptor (Homo sapiens, UniProt P30518); experiment: V2 vasopressin receptor functional activity (cAMP accumulation); type: cell-based; design: expressed in transfected cells; host or cells: HEK-293
# Protocol: The V2 receptor is also a G-protein coupled receptor which when activated induces an increase in cAMP turnover. Antagonism against the V2 receptor is determined by measuring cAMP accumulation in transfected HEK-293 cells expressing the human V-2 receptor (V2-HEK cells). Compounds are tested for their ability to block the stimulatory effects of vasopressin on cAMP accumulation. The cell content of cAMP is measured by radioimmunoassay using NEN flashplates.
# [2] = target: T1, human V1a receptor (Homo sapiens, UniProt P37288); experiment: cell-based
# T1 construct: expressed in transfected cells
# T1 sequence (P37288 whole entry): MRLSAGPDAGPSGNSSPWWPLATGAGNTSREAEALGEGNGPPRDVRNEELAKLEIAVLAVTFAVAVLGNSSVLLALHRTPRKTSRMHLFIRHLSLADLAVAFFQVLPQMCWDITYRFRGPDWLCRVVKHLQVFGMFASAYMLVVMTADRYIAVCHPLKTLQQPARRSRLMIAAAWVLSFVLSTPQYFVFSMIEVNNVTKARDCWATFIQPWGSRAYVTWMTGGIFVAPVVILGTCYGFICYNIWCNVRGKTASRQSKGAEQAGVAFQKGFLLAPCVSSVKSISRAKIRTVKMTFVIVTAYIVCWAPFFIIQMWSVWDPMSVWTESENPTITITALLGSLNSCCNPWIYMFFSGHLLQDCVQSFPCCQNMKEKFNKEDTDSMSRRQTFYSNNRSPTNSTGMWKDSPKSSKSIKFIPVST
# Protocol: The V1a receptor is a G-protein coupled receptor, which upon activation triggers an increase in intracellular calcium mobilization. To evaluate compounds for their functional V1a receptor activity, HEK-293 cells were transfected with the human V1a receptor (V1a-HEK cells). HEK-293 cells were grown in DMEM (Dulbecco's modified Eagle Media) supplemented with 10% FBS and glutamine. HEK-cells were passed biweekly by trypsinization and seeded into 96 well plates at 33,000 cells per well. HEK-293 cells were transfected with human V1a receptor DNA using DMRIE-C reagent from Life Technologies (Carlsbad, Calif.). Stable lines were generated by selecting cells grown in culture media containing geneticin. After growing in Packard Clear-View black 96 well plates for 4-6 days, V1a-HEK cells were loaded with the calcium-sensitive fluorescence dye, FLUO-3 AM. Changes in intracellular calcium mobilization were measured by quantitating intracellular fluorescence using FLIPR (Fluorometric Imaging Plate Reader; Molecular Devices, Sunnyvale, Calif.). Test compounds were first added to the cells and the resulting changes in fluorescence measured to detect receptor agonistic activity. Five minutes later the cells were challenged with vasopressin to test compounds for their antagonistic activity. Receptor antagonists inhibit the ability of vasopressin to stimulate increases in intracellular fluorescence.
# [3] = V2-HEK cells, block of vasopressin-stimulated cAMP accumulation, read-out: V2 (functional) IC50
# [4] = V1 (functional) IC50, V1a-HEK cells, inhibition of vasopressin-stimulated intracellular calcium mobilization
# [5] = V1a-HEK cells, inhibition of vasopressin-stimulated intracellular calcium mobilization, read-out: V1 (functional) IC50
# Sequence of human V2 receptor (P30518 whole entry): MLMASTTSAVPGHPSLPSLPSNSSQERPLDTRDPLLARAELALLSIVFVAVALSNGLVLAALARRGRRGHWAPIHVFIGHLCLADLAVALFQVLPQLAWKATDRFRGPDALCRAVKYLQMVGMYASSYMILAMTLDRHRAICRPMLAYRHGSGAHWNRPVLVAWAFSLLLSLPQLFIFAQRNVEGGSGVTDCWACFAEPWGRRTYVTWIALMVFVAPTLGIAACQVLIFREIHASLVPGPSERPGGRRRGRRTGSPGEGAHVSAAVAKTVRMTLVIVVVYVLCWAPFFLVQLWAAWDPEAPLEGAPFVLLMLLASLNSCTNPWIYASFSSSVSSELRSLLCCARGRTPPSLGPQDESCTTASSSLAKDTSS
SMILES,"pIC50 [1, 3]","pIC50 [2, 4]",pIC50 [2],"pIC50 [2, 5]",pIC50 [1]
"COc1cc(C(=O)N2CC[C@@]3(CC[C@H](NS(N)(=O)=O)C3)Cc3ccccc32)ccc1NC(=O)c1cc(F)ccc1Cl [Cpd 34, (1R,3S)-3-aminosulfonylamino-N-[3-methoxy-4-(2-chloro-5-fluoro-phenylcarbonyl)amino-phenylcarbonyl]-spiro[cyclopentane-1,4′-benzo[b]azepane]]",6.60,6.60,–,–,–
"CON=C1CC[C@@]2(CCN(C(=O)c3ccc(NC(=O)c4cc(F)ccc4Cl)c(OC)c3)c3ccccc3C2)C1 [Cpd 22, (R)—N-[3-methoxy-4-(2-chloro-5-fluoro-phenylcarbonyl)amino-phenylcarbonyl]-3-methoxyimino-spiro[cyclopentane-1,4′-benzo[b]azepane]]",6.13,6.54,–,–,–
"COc1cc(C(=O)N2CC[C@@]3(CCC(N4CCOCC4)C3)Cc3ccccc32)ccc1NC(=O)c1cc(F)ccc1Cl (stereo partly drawn) [Cpd 18, (1R)—N-[3-methoxy-4-(2-chloro-5-fluoro-phenylcarbonyl)amino-phenylcarbonyl]-3-morpholin-4-yl-spiro[cyclopentane-1,4′-benzo[b]azepane]]",5.92,–,6.62,–,–
"COc1cc(C(=O)N2CC[C@@]3(CCC(N)C3)Cc3ccccc32)ccc1NC(=O)c1cc(F)ccc1Cl (stereo partly drawn) [Cpd 17, (1R)-3-amino-N-[3-methoxy-4-(2-chloro-5-fluoro-phenylcarbonyl)amino-phenylcarbonyl]-spiro[cyclopentane-1,4′-benzo[b]azepane]]",5.96,–,6.14,–,–
"COc1cc(C(=O)N2CC[C@@]3(CCC(=NOCC(=O)O)C3)Cc3ccccc32)ccc1NC(=O)c1cc(F)ccc1Cl [Cpd 24, (R)—N-[3-methoxy-4-(2-chloro-5-fluoro-phenylcarbonyl)amino-phenylcarbonyl]-3-carboxymethoxyimino-spiro[cyclopentane-1,4′-benzo[b]azepane]]",6.66,–,7.00,–,–
"COc1cc(C(=O)N2CC[C@@]3(CCC(=NN(C)C)C3)Cc3ccccc32)ccc1NC(=O)c1cc(F)ccc1Cl [Cpd 27, (R)—N-[3-methoxy-4-(2-chloro-5-fluoro-phenylcarbonyl)amino-phenylcarbonyl]-3-dimethylaminoimino-spiro[cyclopentane-1,4′-benzo[b]azepane]]",6.41,6.89,–,–,–
"COC(=O)C=C1CC[C@@]2(CCN(C(=O)c3ccc(NC(=O)c4cc(F)ccc4Cl)c(OC)c3)c3ccccc3C2)C1 [Cpd 26, (R)—N-[3-methoxy-4-(2-chloro-5-fluoro-phenylcarbonyl)amino-phenylcarbonyl]-3-methoxycarbonylmethylene-spiro[cyclopentane-1,4′-benzo[b]azepane]]",7.15,5.40,–,–,–
"COc1cc(C(=O)N2CC[C@@]3(CCC(N4CCCC4)C3)Cc3ccccc32)ccc1NC(=O)c1cc(F)ccc1Cl (stereo partly drawn) [Cpd 25, (1R)-N-[3-methoxy-4-(2-chloro-5-fluoro-phenylcarbonyl)amino-phenylcarbonyl]-3-(1H-pyrrolidin-1-yl)-spiro[cyclopentane-1,4′-benzo[b]azepane]]",6.00,–,6.09,–,–
"COc1cc(C(=O)N2CC[C@]3(C=C(C(=O)NS(=O)(=O)N(C)C)CC3)Cc3ccccc32)ccc1NC(=O)c1cc(F)ccc1Cl [Cpd 36, (R)-N-[3-methoxy-4-(2-chloro-5-fluoro-phenylcarbonyl)amino-phenylcarbonyl]-3-[(dimethylaminosulfonyl)aminocarbonyl]-spiro[cyclopent-2-ene-1,4′-benzo[b]azepane]]",6.77,–,6.68,–,–
"COc1cc(C(=O)N2CC[C@@]3(CCC(N(C)C)C3)Cc3ccccc32)ccc1NC(=O)c1cc(F)ccc1Cl (stereo partly drawn) [Cpd 20, (1R)—N-[3-methoxy-4-(2-chloro-5-fluoro-phenylcarbonyl)amino-phenylcarbonyl]-3-dimethylamino-spiro[cyclopentane-1,4′-benzo[b]azepane]]",–,–,–,6.31,–
"COc1cc(C(=O)N2CC[C@]3(C=C(C(=O)NS(N)(=O)=O)CC3)Cc3ccccc32)ccc1NC(=O)c1cc(F)ccc1Cl [Cpd 13, (R)-3-aminosulfonylaminocarbonyl-N-[3-methoxy-4-(2-chloro-5-fluoro-phenylcarbonyl)amino-phenylcarbonyl]-spiro[cyclopent-2-ene-1,4′-benzo[b]azepane]]",7.96,–,–,7.57,–
"COc1cc(C(=O)N2CC[C@@]3(CCC(=CC(=O)O)C3)Cc3ccccc32)ccc1NC(=O)c1cc(F)ccc1Cl [Cpd 16, (R)-N-[3-methoxy-4-(2-chloro-5-fluoro-phenylcarbonyl)amino-phenylcarbonyl]-3-carboxymethylene-spiro[cyclopentane-1,4′-benzo[b]azepane]]",7.13,–,7.52,–,–
"COc1cc(C(=O)N2CC[C@@]3(CCC(=CC(=O)NCCN4CCOCC4)C3)Cc3ccccc32)ccc1NC(=O)c1cc(F)ccc1Cl [Cpd 28, (R)—N-[3-methoxy-4-(2-chloro-5-fluoro-phenylcarbonyl)amino-phenylcarbonyl]-3-(2-morpholin-4-yl-ethyl)aminocarbonylmethylene-spiro[cyclopentane-1,4′-benzo[b]azepane]]",6.70,–,6.66,–,–
"COc1cc(C(=O)N2CC[C@@]3(CCC(=CC(=O)NCCN(C)C)C3)Cc3ccccc32)ccc1NC(=O)c1cc(F)ccc1Cl [Cpd 31, (R)-N-[3-methoxy-4-(2-chloro-5-fluoro-phenylcarbonyl)amino-phenylcarbonyl]-3-(2-dimethylamino-ethyl)aminocarbonylmethylene-spiro[cyclopentane-1,4′-benzo[b]azepane]]",6.85,–,6.82,–,–
"NS(=O)(=O)NC(=O)C1=C[C@@]2(CC1)CCN(C(=O)c1ccc(NC(=O)c3cc(F)ccc3Cl)cc1)c1ccccc1C2 [Cpd 52, (R)-3-aminosulfonylaminocarbonyl-N-[4-(2-chloro-5-fluoro-phenylcarbonyl)amino-phenylcarbonyl]-spiro[cyclopent-2-ene-1,4′-benzo[b]azepane]]",7.46,–,7.11,–,–
"COc1cc(C(=O)N2CC[C@@]3(CCC(=NO)C3)Cc3ccccc32)ccc1NC(=O)c1cc(F)ccc1Cl [Cpd 15, (R)-N-[3-methoxy-4-(2-chloro-5-fluoro-phenylcarbonyl)amino-phenylcarbonyl]-3-hydroxyimino-spiro[cyclopentane-1,4′-benzo[b]azepane]]",–,7.05,–,–,6.40
"COc1cc(C(=O)N2CC[C@]3(C=C(c4ncc[nH]4)CC3)Cc3ccccc32)ccc1NC(=O)c1cc(F)ccc1Cl [Cpd 14, (R)-N-[3-methoxy-4-(2-chloro-5-fluoro-phenylcarbonyl)amino-phenylcarbonyl]-3-(1H-imidazol-2-yl)-spiro[cyclopent-2-ene-1,4′-benzo[b]azepane]]",6.14,–,–,7.02,–
"COc1cc(C(=O)N2CC[C@]3(C=C(c4nnn[nH]4)CC3)Cc3ccccc32)ccc1NC(=O)c1cc(F)ccc1Cl [Cpd 11, (R)-N-[3-methoxy-4-(2-chloro-5-fluoro-phenylcarbonyl)amino-phenylcarbonyl]-3-tetrazol-5-yl-spiro[cyclopent-2-ene-1,4′-benzo[b]azepane]]",7.40,–,–,7.20,–
"COc1cc(C(=O)N2CC[C@@]3(CCC(NCCN(C)C)C3)Cc3ccccc32)ccc1NC(=O)c1cc(F)ccc1Cl (stereo partly drawn) [Cpd 21, (1R)—N-[3-methoxy-4-(2-chloro-5-fluoro-phenylcarbonyl)amino-phenylcarbonyl]-3-(2-dimethylamino-ethyl)amino-spiro[cyclopentane-1,4′-benzo[b]azepane]]",5.96,–,6.77,–,–
"COc1cc(C(=O)N2CC[C@@]3(CCC(=CC(=O)NCCO)C3)Cc3ccccc32)ccc1NC(=O)c1cc(F)ccc1Cl [Cpd 29, (R)—N-[3-methoxy-4-(2-chloro-5-fluoro-phenylcarbonyl)amino-phenylcarbonyl]-3-(2-hydroxy-ethyl)aminocarbonylmethylene-spiro[cyclopentane-1,4′-benzo[b]azepane]]",7.05,6.77,–,–,–
"COc1cc(C(=O)N2CC[C@@]3(CCC(=CC(N)=O)C3)Cc3ccccc32)ccc1NC(=O)c1cc(F)ccc1Cl [Cpd 32, (R)-3-aminocarbonylmethylene-N-[3-methoxy-4-(2-chloro-5-fluoro-phenylcarbonyl)amino-phenylcarbonyl]-spiro[cyclopentane-1,4′-benzo[b]azepane]]",7.47,6.77,–,–,–
"COc1cc(C(=O)N2CC[C@@]3(CCC(N4CCN(C)CC4)C3)Cc3ccccc32)ccc1NC(=O)c1cc(F)ccc1Cl (stereo partly drawn) [Cpd 23, (1R)—N-[3-methoxy-4-(2-chloro-5-fluoro-phenylcarbonyl)amino-phenylcarbonyl]-3-(4-methyl-piperazin-1-yl)-spiro[cyclopentane-1,4′-benzo[b]azepane]]",–,–,–,6.15,–
